The term melting point denotes the temperature of the solid-liquid transition. Compound `COc1c(OCc2ccccc2)cnc(CNc2nc(C)nc(C)c2Cl)c1C` yielded a melting point of 114 to 116 °C. With `CC(Cc1ccc(OCc2cccc(C(N)=O)c2)cc1)NCCC(c1ccccc1)c1ccccc1` (centres undefined) the figure was 188 to 190 °C; with `CNc1cc(Br)nc(S(=O)(=O)c2ccc([N+](=O)[O-])cc2)c1`, 191 to 192 °C; with `NS(=O)(=O)c1ccc(-n2nc(C(F)(F)F)cc2-c2ccc(-c3cscn3)c(F)c2)cc1F`, 196 to 198 °C. Turning to `CC(CC1=C(O)C(=O)c2ccccc2C1=O)C(F)(F)F` (centres undefined), the melting point worked out at 168 °C. In turn, `CC(=O)ON1C(C)(C)CC(OC(=O)c2ccccc2)CC1(C)C` had a melting point of 110 to 112 °C. Under `CCOC(=O)c1ccc(C(C)=Cc2ccc3ccccc3c2)cc1` stands 96 °C; under `CC(C)(Oc1ccc(C2CCOCC2)cc1Cl)C(=O)O`, 141 °C.

`COc1ccc(C(=O)c2ccon2)cc1` gave a melting point of 71 to 73 °C. `O=C1CCOc2cc(F)ccc21` yielded a melting point of 61 to 62 °C. On to `N#Cc1ccc2c(c1)NCc1ccccc1O2`, for which the melting point lay in the range of 104 to 105 °C. For the compound `N#CC(C#N)=C(Cl)c1ccc(C(Cl)=C(C#N)C#N)cc1`, the melting point lay in the range of 177 to 179 °C. In turn, `CCNC(=O)Nc1nccc(-c2ccncc2)n1` displayed a melting point of 204 to 207 °C.

`CC(C(N)=O)n1nc(-c2cc(C(C)(C)C)c(O)c(C(C)(C)C)c2)c2cccnc21` (centres undefined) displayed a melting point of 192 to 194 °C. In the case of `O=c1[nH]c(=S)c2[nH]cnc2n1-c1ccccc1`, the melting point was over 290 °C. Under `Oc1ccccc1N1c2ccccc2Sc2ccccc21` stands 192 to 200 °C; under `CCC(=O)c1ccc2c(c1)C(C(Cl)(Cl)Cl)OC(C(Cl)(Cl)Cl)O2` (centres undefined), 96 to 97 °C.

`CC(C)=NOCc1nc2c(N)nc3c(c2n1CC(C)C)CCCC3` registered a melting point of 176 to 177 °C. Under `O=S1(=O)c2cccc3cccc(c23)N1CCN1CCC(Cc2c[nH]c3ccccc23)CC1` stands 184 °C. The compound `CCn1c([N+](=O)[O-])cnc1-c1nnc2ccc(N=CN(C)C)nn12` came in with a melting point of 198 to 200 °C. With `CNc1cc(OC)ccc1[N+](=O)[O-]` the figure was 107 to 110 °C. With `Cc1oc(-c2ccccc2)nc1COc1ccc(OCc2ncccc2CC(=O)O)cc1` the figure was 126 to 127 °C; with `O=C(O)[C@H](Cc1ccc(C(F)(F)F)cc1)[C@@H](O)c1ccccc1` (racemic), 138 to 139 °C.

`Cc1cccc(COc2cccc(OCc3ccc4cc(F)c(F)cc4n3)c2)c1OCC(=O)O`: the melting point lay in the range of 94 to 95 °C. With `CC(C)COc1ccc(-c2ccc3nnn(Cc4ccc5ncccc5c4)c3n2)cc1F` the figure was 115 to 157 °C; with `CCN(CC)CCNC(C(=O)NC(C)(C)C)c1ccccc1` (centres undefined), 50 to 52 °C; with `O=C(Oc1cc(OC(=O)c2ccccc2)c(Cl)cn1)c1ccccc1`, 124 to 125 °C. With `Cc1ccc(F)c(CSc2nc(N[C@H](C)CO)c3ncc(=O)[nH]c3n2)c1` the figure was 202 to 204 °C; with `CC(C)(C(N)=O)n1cc(-c2ccc(Oc3ccccc3)cc2)c2c(N)ncnc21`, 227 to 228 °C. With `CCCCc1nc2cccc(CC(=O)O)c2n1Cc1ccccc1Cl` the figure was 216 to 217 °C; with `COc1cc(Nc2c(C#N)cnc3cc(C#C[Si](C)(C)C)sc23)c(Cl)cc1Cl`, 169 to 171 °C; with `Cc1[nH]n(Cc2ccc([N+](=O)[O-])cc2)c2nc(-c3ccncc3)nc(=O)c1-2`, 275 to 281 °C. Regarding `CCn1c(N)c(C(=O)NC)c(=O)c2ccc(-c3ccc(CC(=O)Nc4ccccn4)nc3)nc21`, the melting point was 266 °C. As for `CSc1nn2c(N(C)C)cc(C)nc2c1S(=O)(=O)c1ccc(Cl)cc1`, the melting point fell in the range of 221 to 223 °C.

Turning to `CC(C)N1CCN(Cc2cc(NC(=O)Nc3ccc(Oc4cc(Cl)ncn4)cc3)cc(C(F)(F)F)c2)CC1`, the melting point stood at 101 °C. Under `O=C(CCc1cccnc1)c1ccccc1` stands 86 to 87 °C; under `CCCCCC(=O)NC(=O)N1CC1C#N` (centres undefined), 143 to 144 °C; under `CN(C(=O)c1ccc([N+](=O)[O-])cc1)C1N(C)C(c2ccc(F)cc2)=NC1(C(F)(F)F)C(F)(F)F` (centres undefined), 174 to 175 °C. With `CCC(Oc1ccc(C(C)(C)CC(C)(C)C)cc1)C(=O)Nc1ccc(Cl)c(Nc2cc(=O)n(-c3c(Cl)cc(Cl)cc3Cl)[nH]2)c1` (centres undefined) the figure was 163 to 165 °C; with `COC(=O)c1nn(Cc2ccc(Cl)c(Cl)c2)c(=O)c2cc(OC)ccc12`, 144 to 146 °C.

`Cc1nc(Cl)c([N+](=O)[O-])c(NCCNC(=O)OC(C)(C)C)c1C`: the melting point lay in the range of 110 to 112 °C.

For `O=CNC1=NN(c2cccc(Cl)c2)CC1`, the melting point lay within 143 to 145 °C. In turn, `Cc1ccc(C(=O)Nc2ccc(S(N)(=O)=O)cc2)c(SSc2cc(C)ccc2C(=O)Nc2ccc(S(N)(=O)=O)cc2)c1` yielded a melting point of 319 to 320 °C. Compound `Cc1cc2c(c(C)c1C)C(C)(C)CCC2(C)C` registered a melting point of 79 to 82 °C. With `O=C(c1ccccc1Cl)c1cc2c(cc1NC=C[N+](=O)[O-])CCC2` the figure was 225 to 226 °C; with `COC(=O)c1ccc(C(=O)c2ccccc2)o1`, 70 to 73 °C; with `CCCc1nc(C(O)C(C)C)c(C#N)n1Cc1ccc(-c2ccccc2-c2nnnn2C(c2ccccc2)(c2ccccc2)c2ccccc2)cc1` (centres undefined), 154 to 155 °C. Under `O=C(OC1CCN(Cc2ccccc2)CC1)c1ccccc1Br` stands 69 to 70 °C; under `COc1ccc2c(Cc3ccco3)nnc(N3CCCC3)c2c1`, 148 to 149 °C; under `O=C(O)CCC(=O)c1cc2c(s1)CCc1ccccc1C2=O`, 167 to 168 °C. Under `CCn1c(C)nc2c(C3=NC(C)(C(C)C)C(=O)N3)c(C(=O)OC)ccc21` (centres undefined) stands 189 to 191 °C; under `N#CCCNC(=O)C1=CC(CF)(CF)Oc2ccc(C(F)(F)F)cc21`, 129 to 131 °C; under `CCC(=O)c1cnc(C(=O)C(C)C)cn1`, 70 to 71 °C. `O=[N+]([O-])c1ccc2c(c1)C=CCCO2` had a melting point of 94 to 95.5 °C. With `CCCCCCCCNC(=O)/C=C\SC(=O)CC` the figure was 68 to 70 °C; with `CC(C)(C)c1ncncc1C(=O)c1ccc(Cl)cc1`, 75 to 77 °C; with `CCCCCc1ccc(-c2ccc(Cl)s2)cn1`, 32 °C. Under `C[N+](C)([O-])c1ccc(/C=C/c2c(F)cccc2Cl)cc1` stands 82 to 84 °C. With `CCOC(=O)c1sc(=O)[nH]c1C(Cl)(Cl)Cl` the figure was 109 to 110 °C. For the compound `O=C(O)Cn1cccc(NS(=O)(=O)Cc2ccccc2)c1=O`, the melting point was 186 to 187 °C. Compound `Nc1c(C(=O)c2cccnc2N2CCOCC2)oc2ccc(Cl)cc12` came in with a melting point of 95 to 97 °C.

In the case of `O=C(O)c1cc2ccccc2n1Cc1cccc(Cl)c1`, the melting point was in the range of 188 to 189 °C.

`CCC1CN(O)CCN1O` (centres undefined) yielded a melting point of 137 °C. `COC(=O)C(C)Oc1cccc(C=Cc2ccc3ccc(Br)cc3n2)c1` (centres undefined) yielded a melting point of 101 to 102 °C. With `CCN(CC)CCCNC(=O)N1CCCC(S(=O)(=O)c2ccccc2)C1` (centres undefined) the figure was 56 to 58.5 °C; with `OC1(c2ccc(F)cc2)CCN(CCCc2noc3cc(F)ccc23)CC1`, 100 to 101 °C; with `CC(=O)OCC1CC(n2c(Br)nc3cc(Cl)c(Cl)cc32)C(OC(C)=O)C1OC(C)=O` (centres undefined), 156 to 159 °C. With `Cc1onc(-c2ccccc2)c1-c1ccc(S(N)(=O)=O)cc1` the figure was 171 to 174 °C; with `CC(C)(C)c1cc(-n2ccc(=O)[nH]c2=O)cc(-c2ccc3cc(NS(C)(=O)=O)ccc3c2)c1Cl`, over 280 °C. `CCCCNc1cc2c(cc1[N+](=O)[O-])OCO2` displayed a melting point of 137 °C. In turn, `O=C(O)CCN1C(=O)c2ccc(C(=O)O)cc2C1=O` came in with a melting point of 240 to 242 °C.

`Cc1nc(CN(C)C)n(-c2ccc(Cl)cc2C(=O)c2ccccc2Cl)c1CO` had a melting point of 164 to 166 °C.

Regarding `CCN(CC)C(=O)c1c(-c2ccccc2)[nH]c2ccccc12`, the melting point fell in the range of 224 to 226 °C.

Turning to `O=C1CCC(N2C(=O)c3ccc(CNC(=O)C4CC4)cc3C2=O)C(=O)N1` (centres undefined), the melting point lay in the range of 163 to 165 °C. With `CC(CC#N)n1nnc2cc3c(=O)n(C(C)Cn4ncnn4)nnc3cc2c1=O` (centres undefined) the figure was 105 to 108 °C; with `CCC(=C(c1ccc(I)cc1)c1ccc(OCCCCCl)cc1)c1ccccc1`, 85 to 87 °C. `COC(=O)c1cccc(N)n1`: the melting point worked out at 87 °C.

Turning to `CCOC(=O)CCc1ccc(OCCN2CCCC2=O)cc1O`, the melting point is 112 to 115 °C. Regarding `CC(C)Oc1cccc(CSc2nc(N)cc(Cl)n2)c1`, the melting point came to 71 °C.

Consider `O=C(Nc1cc(C2CC2)n[nH]1)c1ccc[nH]1`, for which the melting point is 207 to 209 °C. Regarding `CCOC(=O)C(=O)Nc1ccc(C(F)(F)F)cc1C`, the melting point was 120 to 121 °C. `CNC(=O)c1cccc(CNc2n[nH]c3ncnc(Nc4cccc(Cl)c4)c23)c1` returned a melting point of 252 to 254 °C. As to `CC(C)(C)OC(=O)NC1CCCCCC=CC2CC2(C(=O)NS(=O)(=O)C2CC2)NC(=O)C2CC(OC(=O)c3ccc(C#N)cc3)CN2C1=O` (centres undefined), the melting point fell in the range of 164 to 166 °C.

In turn, `O=S(=O)(NCc1ccc(Cl)cc1)c1cc(Cl)c2cccnc2c1O` had a melting point of 189 to 190 °C. Under `COC(=O)c1sc2cc(C(F)(F)F)ccc2c1NC(C)=O` stands 204 to 205 °C.

In turn, `C[C@]12CC[C@]3(C)C(O)CC[C@H]3[C@@H]1CCC1=C2CC=C(O)C1` (some centres undefined) registered a melting point of 86 to 90 °C.

`COc1ccccc1[C@H](c1cccc2ccccc12)[C@@](C)(C#N)C(=O)N1CCN(c2cccc(C(F)(F)F)c2)CC1`: the melting point was 158 to 162 °C. For the compound `CNC(=NC#N)NCc1cccnc1`, the melting point fell in the range of 183 to 184 °C.

`CS(=O)(=O)c1nc(N)c2ncn(C3CCCCC3)c2n1` came in with a melting point of 272 to 274 °C.

(Values after a melting point compilation (Tetko et al.; mined from patent text by program, amines drawn as free bases though some values may be those of a salt).)
